Source: patent US20160297830A1, “NOVEL COMPOUNDS USEFUL FOR THE TREATMENT OF BACTERIAL INFECTIOUS DISEASES” (GALAPAGOS NV, priority 2013, published 2016)
Converted amounts (≈) assume the structure as drawn. Where two headings read alike, the source gives them in different places.

Key:
[1] = system: Methicillin Resistant S. aureus (MRSA); assay: Neutropenic mouse thigh infection model; settings: Thigh Sa
[2] = system: S. aureus Sa2 clinical strain NCIMB 41953, MRSA; assay: microbe, parasite or virus in culture; type: cell-based; settings: for MIC: Staphylococcus aureus, read-out: MIC Sa2
[3] = system: H. influenza Hi47 clinical strain, Ampicillin Resistant; assay: organism not typed; type: cell-based; settings: for MIC: read-out: MIC Hi47
[4] = system: E. coli Ec50 efflux pump KO; assay: microbe, parasite or virus in culture; type: cell-based; settings: for MIC: Escherichia coli, read-out: MIC Ec50 efflux pump KO
[5] = system: S. aureus Sa26 ATCC 25923; assay: Antibacterial activity assay (MIC), S. aureus Sa26; type: cell-based; settings: for MIC: Staphylococcus aureus
[6] = target: DNA Polymerase IIIα (DnaE) from Staphylococcus aureus (Staphylococcus aureus, UniProt Q6GG04); assay: biochemical
S. aureus Sa1 ATCC 13709 = assay: microbe, parasite or virus in culture; type: cell-based; settings: for MIC: Staphylococcus aureus
[7] = system: E. coli Ec113 efflux pump KO; assay: microbe, parasite or virus in culture; type: cell-based; settings: for MIC: Escherichia coli, read-out: MIC Ec113 efflux pump KO
E. coli Ec1 ATCC 25922 = assay: Antibacterial activity assay (MIC), E. coli Ec1; type: cell-based; settings: for MIC: Escherichia coli
S. aureus Sa4 NCTC 6571 = assay: Antibacterial activity assay (MIC), S. aureus Sa4; type: cell-based; settings: for MIC: Staphylococcus aureus
[8] = system: H. influenza Hi10 clinical strain; assay: organism not typed; type: cell-based; settings: read-out: MIC Hi10
[9] = system: H. influenza Hi3 ATCC 31517; assay: organism not typed; type: cell-based; settings: read-out: MIC Hi3
[10] = system: H. influenza Hi106 ATCC 51907; assay: organism not typed; type: cell-based; settings: read-out: MIC Hi106
[11] = Study 1, 50 mg/kg SC BID, sample time 7 h PI
[12] = Study 2, 50 mg/kg SC BID, sample time 7 h PI
[13] = Study 3, 50 mg/kg SC BID, sample time 7 h PI
[14] = Study 4, 50 mg/kg SC BID, sample time 24 h PI
[15] = Study 5, 50 mg/kg SC BID, sample time 24 h PI
[16] = Study 6, 50 mg/kg SC BID, sample time 24 h PI
[17] = Study 7, 50 mg/kg SC BID, sample time 24 h PI
[18] = Study 8, 50 mg/kg SC QD, sample time 48 h PI
[19] = Study 9, 50 mg/kg SC BID, sample time 24 h PI
[20] = ATCC25923, read-out: MIC Sa26 + 10% SH
[21] = ATCC25923, read-out: MIC Sa26 + 50% SH
[22] = Study 6, 25 mg/kg PO BID, sample time 24 h PI
[23] = Study 7, 15 mg/kg PO BID, sample time 24 h PI
[24] = Study 7, 50 mg/kg PO BID, sample time 24 h PI
[25] = Study 8, 50 mg/kg PO QD, sample time 48 h PI
[26] = Study 9, 50 mg/kg PO BID, sample time 24 h PI

Sequence of DNA Polymerase IIIα (DnaE) from Staphylococcus aureus (Q6GG04 1-1022): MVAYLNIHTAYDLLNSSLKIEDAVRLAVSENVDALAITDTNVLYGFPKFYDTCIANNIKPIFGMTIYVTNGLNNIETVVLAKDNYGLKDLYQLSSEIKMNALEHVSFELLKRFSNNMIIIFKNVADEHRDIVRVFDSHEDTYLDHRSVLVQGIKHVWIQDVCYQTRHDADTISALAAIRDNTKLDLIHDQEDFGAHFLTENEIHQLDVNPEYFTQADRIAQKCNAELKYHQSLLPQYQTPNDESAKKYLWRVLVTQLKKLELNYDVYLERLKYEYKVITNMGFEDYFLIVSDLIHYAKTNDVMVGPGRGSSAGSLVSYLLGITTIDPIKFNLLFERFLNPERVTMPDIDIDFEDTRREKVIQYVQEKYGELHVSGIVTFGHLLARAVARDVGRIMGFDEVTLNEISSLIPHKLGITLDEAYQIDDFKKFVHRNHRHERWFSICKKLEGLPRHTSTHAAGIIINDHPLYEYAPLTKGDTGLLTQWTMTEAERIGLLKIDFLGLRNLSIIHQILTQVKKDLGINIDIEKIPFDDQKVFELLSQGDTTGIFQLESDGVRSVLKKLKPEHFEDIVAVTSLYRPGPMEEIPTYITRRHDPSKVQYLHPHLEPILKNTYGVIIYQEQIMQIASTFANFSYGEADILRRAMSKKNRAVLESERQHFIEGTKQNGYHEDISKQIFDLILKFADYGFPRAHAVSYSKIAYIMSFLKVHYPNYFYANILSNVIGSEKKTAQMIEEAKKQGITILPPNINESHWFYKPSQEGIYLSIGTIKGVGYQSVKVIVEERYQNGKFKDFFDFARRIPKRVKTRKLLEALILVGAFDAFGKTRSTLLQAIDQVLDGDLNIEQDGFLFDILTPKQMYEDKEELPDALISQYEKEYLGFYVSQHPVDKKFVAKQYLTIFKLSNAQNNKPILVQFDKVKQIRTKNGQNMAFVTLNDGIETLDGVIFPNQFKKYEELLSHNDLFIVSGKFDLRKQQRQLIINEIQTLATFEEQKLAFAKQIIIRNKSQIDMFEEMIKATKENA

## O=C(O)c1cn(C2CC2)c2cc(N3CCNCC3)c(F)cc2c1=O [Ciprofloxacin]
[1]; [11]
  Active: N
  Log reduction vs. untreated: −1.27
[1]; [12]
  Active: N
  Log reduction vs. untreated: −1.07
[1]; [13]
  Active: N
  Log reduction vs. untreated: 0.22
[1]; [14]
  Active: N
  Log reduction vs. untreated: −0.05
[1]; [15]
  Active: N
  Log reduction vs. untreated: −0.27
[1]; [16]
  Active: N
  Log reduction vs. untreated: −0.26
[1]; [17]
  Active: N
  Log reduction vs. untreated: −0.08
[1]; [18]
  Active: N
  Log reduction vs. untreated: −0.39
[1]; [19]
  Active: N
  Log reduction vs. untreated: −1.28

## 8-O-4-Bromo-5-Chloro-1H-pyrrole-2′-carbonylbranimycin [Compound 35]
[2]; S. aureus Sa2 clinical strain, MRSA, Erythromycin Resistant, Fluoroquinolone resistant
  MIC Sa2: 64 µg/mL
[3]; H. influenza Hi47 clinical strain, Ampicillin Resistant
  MIC Hi47: >64 µg/mL
[4]; E. coli Ec50 efflux pump KO
  MIC Ec50 efflux pump KO: >64 µg/mL
[5]; S. aureus Sa26 + 10% SH
  MIC Sa26 + 10% SH: >64 µg/mL
[5]; S. aureus Sa26 + 50% SH
  MIC Sa26 + 50% SH: >64 µg/mL
[5]; S. aureus Sa26 ATCC 25923, sensitive strain, Mueller-Hinton Broth, 37° C.
  MIC Sa26: >64 µg/mL
[6]
  IC50 semiquantitative scoring, S. aureus: ** (key: ***: 0.001-1 μg/mL; **: 1.0-10 μg/mL; *: >10 μg/mL)
S. aureus Sa1 ATCC 13709; S. aureus Sa1 ATCC 13709, sensitive strain, Mueller-Hinton Broth, 37° C.
  MIC Sa1: >64 µg/mL
[7]; E. coli Ec113 efflux pump KO
  MIC Ec113 efflux pump KO: 64 µg/mL
E. coli Ec1 ATCC 25922; E. coli Ec1 ATCC 25922, sensitive strain
  MIC Ec1: >64 µg/mL
S. aureus Sa4 NCTC 6571; S. aureus Sa4 NCTC 6571, sensitive strain
  MIC Sa4: 64 µg/mL

## COC[C@@H]1[C@@H](O)[C@@H]2[C@H]3C=C[C@@H]4[C@@H](COC)C(=O)O[C@H]([C@H](O)COC)[C@H](C)/C=C(\C)[C@@]24O[C@H]3[C@@H]1OC(=O)c1cc(Cl)c(Cl)[nH]1 [Compound 31, 8-O-4,5-Dichloro-1H-pyrrole-2′-carbonylbranimycin]
[2]
  MIC: 64 µg/mL (≈ 99.3 µM)
[3]
  MIC: 32 µg/mL (≈ 49.6 µM)
[8]
  MIC: 16 µg/mL (≈ 24.8 µM)
[4]
  MIC: > 64 µg/mL
[5]; ATCC25923, read-out: MIC Sa26
  MIC: > 64 µg/mL
[5]; [20]
  MIC: > 64 µg/mL
[5]; [21]
  MIC: > 64 µg/mL
S. aureus Sa1 ATCC 13709; ATCC13709, read-out: MIC Sa1
  MIC: > 64 µg/mL
[7]
  MIC: 32 µg/mL (≈ 49.6 µM)
[9]
  MIC: > 64 µg/mL
E. coli Ec1 ATCC 25922; ATCC25922, read-out: MIC Ec1
  MIC: > 64 µg/mL
[10]
  MIC: 32 µg/mL (≈ 49.6 µM)
S. aureus Sa4 NCTC 6571; NCTC6571, read-out: MIC Sa4
  MIC: 64 µg/mL (≈ 99.3 µM)

## CC(=O)NC[C@H]1CN(c2ccc(N3CCOCC3)c(F)c2)C(=O)O1 [Linezolid]
[1]; Study 5, 50 mg/kg PO BID, sample time 24 h PI
  Log reduction vs. untreated: −4.07
[1]; [15]
  Active: Y
[1]; [22]
  Active: Y
  Log reduction vs. untreated: −4.54
[1]; Study 6, 50 mg/kg PO BID, sample time 24 h PI
  Log reduction vs. untreated: −3.49
[1]; [23]
  Active: Y
  Log reduction vs. untreated: −2.98
[1]; [24]
  Active: Y
  Log reduction vs. untreated: −5.13
[1]; [25]
  Active: Y
  Log reduction vs. untreated: −2.78
[1]; [26]
  Active: Y
  Log reduction vs. untreated: −4.01

## COCC(=NOC(C)=O)[C@H]1OC(=O)[C@H](COC)[C@H]2C=C[C@H]3[C@H]4O[C@]2(/C(C)=C/[C@H]1C)[C@@H]3[C@H](O)[C@@H](COC)[C@H]4OC(=O)c1cc(Cl)c[nH]1 [Compound 42, 18-Acetylimino-18-deoxy-8-O-4-Chloro-1H-pyrrole-2′-carbonylbranimycin]
[2]
  MIC: 2 µg/mL (≈ 3.01 µM)
[3]
  MIC: > 64 µg/mL
[8]
  MIC: > 64 µg/mL
[4]
  MIC: 64 µg/mL (≈ 96.2 µM)
[5]; ATCC25923, read-out: MIC Sa26 + 10% SH, S. aureus Sa26 + 10% SH
  MIC: 16 µg/mL
[5]; ATCC25923, read-out: MIC Sa26 + 50% SH, S. aureus Sa26 + 50% SH
  MIC: 32 µg/mL
[5]; ATCC25923, S. aureus Sa26 ATCC 25923, sensitive strain, Mueller-Hinton Broth, 37° C., read-out: MIC Sa26
  MIC: 4 µg/mL (≈ 6.01 µM)
S. aureus Sa1 ATCC 13709; ATCC13709, S. aureus Sa1 ATCC 13709, sensitive strain, Mueller-Hinton Broth, 37° C., read-out: MIC Sa1
  MIC: 2 µg/mL (≈ 3.01 µM)
[7]
  MIC: 4 µg/mL (≈ 6.01 µM)
[9]
  MIC: > 64 µg/mL
E. coli Ec1 ATCC 25922; ATCC25922, E. coli Ec1 ATCC 25922, sensitive strain, read-out: MIC Ec1
  MIC: > 64 µg/mL
[10]
  MIC: > 64 µg/mL
S. aureus Sa4 NCTC 6571; NCTC6571, S. aureus Sa4 NCTC 6571, sensitive strain, read-out: MIC Sa4
  MIC: 2 µg/mL (≈ 3.01 µM)

## COC[C@@H](O)[C@H]1OC(=O)[C@H](COC)[C@H]2C=C[C@H]3[C@H]4O[C@]2(/C(C)=C/[C@H]1C)[C@@H]3[C@H](O)[C@@H](C)[C@H]4OC(=O)c1cc(Cl)c[nH]1 [Compound 30, 8-O-4-Chloro-1H-pyrrole-2′-carbonylbaleomycin]
[2]
  MIC: 8 µg/mL (≈ 13.8 µM)
[3]
  MIC: 64 µg/mL (≈ 110 µM)
[8]
  MIC: 64 µg/mL (≈ 110 µM)
[4]
  MIC: 16 µg/mL (≈ 27.6 µM)
[5]; ATCC25923, read-out: MIC Sa26
  MIC: 16 µg/mL (≈ 27.6 µM)
[5]; [20]
  MIC: 32 µg/mL
[5]; [21]
  MIC: 64 µg/mL
S. aureus Sa1 ATCC 13709; ATCC13709, read-out: MIC Sa1
  MIC: 16 µg/mL (≈ 27.6 µM)
[7]
  MIC: 0.5 µg/mL (≈ 0.862 µM)
[9]
  MIC: > 64 µg/mL
E. coli Ec1 ATCC 25922; ATCC25922, read-out: MIC Ec1
  MIC: > 64 µg/mL
[10]
  MIC: > 64 µg/mL
S. aureus Sa4 NCTC 6571; NCTC6571, read-out: MIC Sa4
  MIC: 16 µg/mL (≈ 27.6 µM)
